Experimental data reported in BindingDB's records for doi:10.1021/jm0503087 (Conforma Therapeutics, 2006).

Molecular target: Heat shock protein HSP 90-beta (Homo sapiens, UniProt P08238)
Assay: Her-2 Degradation Assay
Details: pH 7.2; 37 °C
Procedure: A fluorescence histogram was generated, and the mean fluorescence intensity (MFI) of each sample was determined using Cellquest software.

Heat shock protein HSP 90-beta, sequence (P08238 whole entry): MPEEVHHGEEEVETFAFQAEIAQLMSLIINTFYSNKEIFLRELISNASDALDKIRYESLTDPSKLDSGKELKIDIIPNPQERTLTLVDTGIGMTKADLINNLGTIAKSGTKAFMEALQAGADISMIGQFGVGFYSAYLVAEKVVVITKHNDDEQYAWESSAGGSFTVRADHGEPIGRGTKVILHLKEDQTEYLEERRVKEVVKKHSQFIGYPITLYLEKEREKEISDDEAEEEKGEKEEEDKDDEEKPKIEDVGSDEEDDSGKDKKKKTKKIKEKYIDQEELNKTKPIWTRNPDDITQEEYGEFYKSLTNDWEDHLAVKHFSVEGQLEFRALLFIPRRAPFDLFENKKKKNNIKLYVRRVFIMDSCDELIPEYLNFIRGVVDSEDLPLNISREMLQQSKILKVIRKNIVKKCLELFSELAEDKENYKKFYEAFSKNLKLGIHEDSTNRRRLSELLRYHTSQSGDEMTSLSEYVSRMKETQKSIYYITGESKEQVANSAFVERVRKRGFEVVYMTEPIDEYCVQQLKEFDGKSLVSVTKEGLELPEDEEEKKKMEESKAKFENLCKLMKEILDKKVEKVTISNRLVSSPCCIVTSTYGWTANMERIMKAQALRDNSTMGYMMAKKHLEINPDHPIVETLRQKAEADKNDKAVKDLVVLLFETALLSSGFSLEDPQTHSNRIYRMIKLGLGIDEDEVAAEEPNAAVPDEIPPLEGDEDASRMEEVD

SMILES | EC50 [µM]
COc1ccc(I)c(Sc2nc3c(N)ncnc3n2CCCNC(C)(C)C)c1 | 0.14
C#CCCCn1c(Sc2cc(OC)ccc2I)nc2c(N)nc(F)nc21 [2-fluoro-8-[(2-iodo-5-methoxyphenyl)sulfanyl]-9-(pent-4-yn-1-yl)-9H-purin-6-amine] | 0.36
CCCCn1c(Cc2cc(OC)ccc2Br)nc2c(N)ncnc21 [8-[(2-bromo-5-methoxyphenyl)methyl]-9-butyl-9H-purin-6-amine] | 8
COc1ccc(I)c(Sc2nc3c(N)ncnc3n2CCC=C(C)C)c1 [8-[(2-iodo-5-methoxyphenyl)sulfanyl]-9-(4-methylpent-3-en-1-yl)-9H-purin-6-amine] | 0.37
CCC(CC)NCCCn1c(Sc2cc(OC)ccc2I)nc2c(N)ncnc21 [8-[(2-iodo-5-methoxyphenyl)sulfanyl]-9-[3-(pentan-3-ylamino)propyl]-9H-purin-6-amine] | 0.21
COc1ccc(I)c(Sc2nc3c(N)ncnc3n2CCCNC(C)C)c1 [8-[(2-iodo-5-methoxyphenyl)sulfanyl]-9-[3-(propan-2-ylamino)propyl]-9H-purin-6-amine] | 0.18
COc1ccc(I)c(Sc2nc3c(N)ncnc3n2CCNCC(C)C)c1 [8-[(2-iodo-5-methoxyphenyl)sulfanyl]-9-{2-[(2-methylpropyl)amino]ethyl}-9H-purin-6-amine] | 0.1
CCC(C)NCCCn1c(Sc2cc(OC)ccc2I)nc2c(N)ncnc21 (configuration not stated) [9-[3-(butan-2-ylamino)propyl]-8-[(2-iodo-5-methoxyphenyl)sulfanyl]-9H-purin-6-amine] | 0.21
CCCCn1c(Sc2cc(OC)ccc2OC)nc2c(N)ncnc21 [9-butyl-8-[(2,5-dimethoxyphenyl)sulfanyl]-9H-purin-6-amine] | 3.5
CCCCn1c(Cc2cc(OC)ccc2Cl)nc2c(N)ncnc21 [9-butyl-8-[(2-chloro-5-methoxyphenyl)methyl]-9H-purin-6-amine] | 20
CCCCn1c(Cc2cc(OC)ccc2I)nc2c(N)ncnc21 [9-butyl-8-[(2-iodo-5-methoxyphenyl)methyl]-9H-purin-6-amine] | 5
CCCCn1c(Cc2cc(OC)ccc2OC)nc2c(N)ncnc21 [PU7] | 12
